Counter-ions that a name gives are not always drawn.

The first assay deals with T1, Cloned Neurokinin Receptor Subtype 2 Human (Homo sapiens, UniProt P21452).
T1 construct: purchased Biosignal Packard; host or cells: CHO cells
T1 sequence (P21452 1-398): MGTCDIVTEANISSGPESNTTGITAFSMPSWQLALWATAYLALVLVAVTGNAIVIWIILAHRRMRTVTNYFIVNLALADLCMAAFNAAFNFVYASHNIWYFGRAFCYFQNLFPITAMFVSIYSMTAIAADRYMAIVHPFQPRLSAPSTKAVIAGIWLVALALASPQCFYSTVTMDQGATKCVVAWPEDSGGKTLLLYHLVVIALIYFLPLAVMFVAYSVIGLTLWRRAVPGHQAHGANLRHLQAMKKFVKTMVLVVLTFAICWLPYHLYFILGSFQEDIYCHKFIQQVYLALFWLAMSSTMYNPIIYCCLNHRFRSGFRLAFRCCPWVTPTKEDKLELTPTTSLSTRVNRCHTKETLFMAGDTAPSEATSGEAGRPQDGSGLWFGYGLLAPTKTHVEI
Put plainly: NK-2 receptor-binding experiment ([3H]-SR48968, CHO cell membranes). Conditions: Table 3; inhibition of [3H]-SR48968 (0.85 nM) binding, pseudo-Hill analysis. The procedure: 2. NK-2 Receptor-binding Experiment
Cloned Neurokinin Receptor Subtype 2 Human (CHO cells, Biosignal Packard), [^3H]-SR48968 (Amersham, final concentration 0.85 nM), and a test compound were mixed with 20 mM HEPES buffer, and the mixture was incubated for 50 minutes at 27° C. After completion of incubation, membrane components were collected by means of an automatic filtration apparatus (Brandel) onto a GF/C glass fiber filter (Whatman).
Before use, in order to prevent non-specific binding, the glass fiber filter had been pre-treated with 0.1% polyethylene imine solution for about 4 hours.
The filter employed to collect the membrane components was transferred to a plastic vial containing UltimaGold MV (5 mL), and measured by means of a liquid scintillation counter (Packard, 2000CA) in terms of the radioactivity.
(§1) Percent radioactive ligand-receptor binding inhibition of each test compound was calculated by use of the following equation, and IC50 (nM) was determined through pseudo-Hill analysis.
(§2) Percent inhibition (%)=[1−(C−A)/(B−A)]×100
(§3) A: Radioactivity attributed to non-specific binding
(§4) B: Radioactivity without test compound
(§5) C: Radioactivity with test compound
On to `CCN(C(=O)C(=O)N(C)[C@](CCN1CCC2(CC1)NC(=O)Cc1ccccc12)(CN(C)C(=O)CC(F)(F)F)c1ccc(Cl)c(Cl)c1)c1ccccc1` [Compound No. 41, N^1-{1-(3,3,3-trifluoro-N-methylpropanamido)-2-(S)-(3,4-dichlorophenyl)-4-[3-oxo-3,4-dihydro-2H-spiro(isoquinoline-1,4′-piperidin)-1′-yl]butan-2-yl}-N^1-methyl-N^2-ethyl-N^2-phenyloxalamide hydrochloride], for which the IC50 came to 0.84 nM.

The target of the next assay is NK-1 receptor (Homo sapiens, UniProt P25103). Briefly: NK-1 receptor-binding test ([3H]-Substance P, hNK1-CHO cells). On the set-up: expressed in transfected cells; host or cells: CHO-K1 cells (ATCC: CCL-61), G418-resistant, hNK1-CHO.
Chain of NK-1 receptor (P25103 whole entry): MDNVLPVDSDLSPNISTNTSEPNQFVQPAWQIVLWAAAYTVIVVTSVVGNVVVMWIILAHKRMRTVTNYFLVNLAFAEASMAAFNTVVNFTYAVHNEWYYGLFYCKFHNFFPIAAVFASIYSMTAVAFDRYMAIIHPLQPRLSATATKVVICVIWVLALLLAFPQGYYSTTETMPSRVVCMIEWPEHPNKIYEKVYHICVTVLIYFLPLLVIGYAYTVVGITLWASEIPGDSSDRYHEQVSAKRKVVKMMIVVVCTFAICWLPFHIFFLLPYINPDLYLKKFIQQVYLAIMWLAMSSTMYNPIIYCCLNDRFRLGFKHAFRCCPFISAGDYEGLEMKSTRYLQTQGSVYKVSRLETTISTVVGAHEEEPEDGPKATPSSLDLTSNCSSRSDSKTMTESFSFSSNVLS
Details: not given
How it is done: 1. NK-1 Receptor-binding Test
1) Preparation of Human NK-1 Receptor Expression Cells
FuGene 6 transfection reagent (Boegringer Mannheim) (3 μL) was diluted in an F-12 culture broth (97 μL), and pCR3.1 plasmid to which human NK-1 receptor cDNA had been introduced (Invitrogen) (10 μL) was added thereto. The mixture was mixed and incubated for 15 minutes (transfection reagent). CHO-K1 cells (ATCC: CCL-61) were cultured for 24 hours, and the whole reagent prepared above was added to the cultured CHO-K1 cells ([…]). Subsequently, culture was performed in the presence of G418 (Stratagene), and the resistant cells were employed as cells into which human NK-1 receptor gene was introduced (hNK1-CHO).
2) Subcultivation of hNK1-CHO Cells
The hNK1-CHO cells were treated with trypsin-EDTA and subcultivated in an F-12 culture broth (containing 10% fetal bovine serum, 10 mM HEPES, 100 U/mL, penicillin, 100 μg/mL streptmycin, 400 μg/mL G418) in a 75-cm^2 flask (FALCON). Cells to be employed in the receptor-binding experiment were added to a 24-well plate (IWAKI) at 1×10^5 cells/well, and subcultured for 48 hours at 37° C. under 95% […] and 5% CO2.
3) Receptor-binding Experiment
When the hNK1-CHO cells became subconfluent on the 24-well plate, an F-12 culture broth (containing 10 mM HEPES and 0.1% fetal bovine serum) (450 μL), [^3H]-Substance P (Amersham, final concentration 0.5 nM), and a test compound were added to the cells, and the mixture was incubated for 40 minutes at 37° C. For the measurement of non-specific binding, L703606 (Sigma) was added instead of the test compound. After completion of incubation, the mixture was washed with ice-cooled phosphate buffered saline containing 0.1% fetal bovine serum, and the cells were lysed with 1N NaOH (0.5 mL). The lysate was transfered to a plastic vial containing UltimaGold MV (5 mL), and the radioactivity was determined by means of a liquid liquid scintillation counter (Packard, 2000CA).
as §1, §2, §3, §4, §5
`COc1cc(COCC(CCCN2CCC(C(N)=O)(c3ccccc3)CC2)(c2ccc(Cl)c(Cl)c2)N(C)C(=O)Oc2ccccc2)cc(OC)c1OC` (racemic) [Compound No. 17, [4-(4-Carbamoyl-4-phenyl-piperidine-1-yl)-1-(3,4-dichloro-phenyl)-1-(3,4,5-trimethoxy-benzyloxymethyl)-butyl]-methyl-carbamic acid phenyl ester hydrochloride]: the IC50 is 1.5 nM.
With `CN(C[C@](CCCN1CCC(C(N)=O)(c2ccccc2)CC1)(c1ccc(Cl)c(Cl)c1)N(C)C(=O)Oc1ccccc1)C(=O)C(F)(F)F` [Compound No. 578, phenyl[1-(2,2,2-trifluoro-N-methylacetamide)-2-(S)-(3,4-dichlorophenyl)-5-(4-carbamoyl-4-phenylpiperidine-1′-yl)pentan-2-yl]methylcarbamate hydrochloride], the IC50 stood at 9.5 nM.
On the same count and under the same terms, for `COc1cc(C(=O)N(C)C[C@](CCCN2CCC3(CC2)c2ccccc2C[S@+]3[O-])(c2ccc(Cl)c(Cl)c2)N(C)C(=O)Oc2ccccc2)cc(OC)c1OC` [Compound No. 589, phenyl{1-(3,4,5-trimethoxy-N-methylbenzamide)-2-(S)-(3,4-dichlorophenyl)-5-[spiro(benzo(c)thiophene-(2S)-oxido-1(3H),4′-piperidin)-1′-yl]pentan-2-yl}methylcarbamate hydrochloride] the value was 0.53 nM; for `CN(C[C@](CCCN1CCC2(CC1)c1ccccc1C[S@+]2[O-])(c1ccc(Cl)c(Cl)c1)N(C)C(=O)Oc1ccccc1)C(=O)CC(F)(F)F` [Compound No. 591, phenyl{1-(3,3,3-trifluoro-N-methylpropanamido)-2-(S)-(3,4-dichlorophenyl)-5-[spiro(benzo(c)thiophene-(2S)-oxido-1(3H),4′-piperidin)-1′-yl]pentan-2-yl}methylcarbamate hydrochloride], 6.9 nM.
The compound `CN(C[C@](CCCN1CCC2(CC1)c1ccccc1C[S@+]2[O-])(c1ccc(Cl)c(Cl)c1)N(C)C(=O)Oc1ccc(Cl)cc1)C(=O)CC(F)(F)F` [Compound No. 633, 4-chlorophenyl(1-(3,3,3-trifluoro-N-methylpropanamido)-2-(S)-(3,4-dichlorophenyl)-5-[spiro(benzo(c)thiophene-(2S)-oxido-1(3H),4′-piperidin)-1′-yl]pentan-2-yl}methylcarbamate hydrochloride] had an IC50 of 8.3 nM.

The assay is the same for the next values; noted with them: Table 2; inhibition of [3H]-Substance P (0.5 nM) binding to hNK1-CHO cells, pseudo-Hill analysis; read-out: NK-1.
As for `COc1cc(COCC(CCCN2CCC(C(N)=O)(c3ccccc3)CC2)(c2ccc(Cl)c(Cl)c2)N(C)C(=O)Nc2ccccc2)cc(OC)c1OC` (racemic) [Compound No. 15, 1-[4-(3,4-Dichloro-phenyl)-4-(1-methyl-3-phenyl-ureido)-5-(3,4,5-trimethoxy-benzyloxy)-pentyl]-4-phenyl-piperidine-4-carboxylic acid amide], the IC50 came out at 0.9 nM.
On to `COc1cc(C(=O)N(C)CC(CCN2CCC(C(N)=O)(c3ccccc3)CC2)(c2ccc(Cl)c(Cl)c2)N(C)C(=O)Oc2ccccc2)cc(OC)c1OC` (racemic) [Compound No. 16, (3-(4-Carbamoyl-4-phenyl-piperidine-1-yl)-1-(3,4-dichloro-phenyl)-1-{[methyl-(3,4,5-trimethoxy-benzoyl)-amino]-methyl}-propyl)-methyl-carbamic acid phenyl ester hydrochloride], for which the IC50 was 3.5 nM.
In the case of `COc1cc(COC[C@](CCCN2CCC3(CC2)c2ccccc2C[S@+]3[O-])(c2ccc(Cl)c(Cl)c2)N(C)C(=O)NC2CCCCC2)cc(OC)c1OC` [Compound No. 599, 1-{1-(3,4,5-trimethoxybenzyloxy)-2-(S)-(3,4-dichlorophenyl)-5-[spiro(benzo(c)thiophene-(2S)-oxido-1(3H),4′-piperidin)-1′-yl]pentan-2-yl}-3-cyclohexyl-1-methylurea hydrochloride], the IC50 came out at 0.73 nM.
On to `COc1cc(COC[C@](CCCN2CCC3(CC2)c2ccccc2C[S@+]3[O-])(c2ccc(Cl)c(Cl)c2)N(C)C(=O)Nc2cccc(F)c2)cc(OC)c1OC` [Compound No. 615, 1-{1-(3,4,5-trimethoxybenzyloxy)-2-(S)-(3,4-dichlorophenyl)-5-[spiro(benzo(c)thiophene-(2S)-oxido-1(3H),4′-piperidin)-1′-yl]pentan-2-yl}-3-(3-fluorophenyl)-1-methylurea hydrochloride], for which the IC50 was found to be 0.58 nM.
For `COc1cc(COC[C@](CCCN2CCC3(CC2)c2ccccc2C[S@+]3[O-])(c2ccc(Cl)c(Cl)c2)N(C)C(=O)Nc2cccc(C(F)(F)F)c2)cc(OC)c1OC` [Compound No. 616, 1-{1-(3,4,5-trimethoxybenzyloxy)-2-(S)-(3,4-dichlorophenyl)-5-[spiro(benzo(c)thiophene-(2S)-oxido-1(3H),4′-piperidin)-1′-yl]pentan-2-yl}-3-[3-(trifluoromethyl)phenyl]-1-methylurea hydrochloride], the IC50 was 2 nM.
For the compound `COc1cc(COC[C@](CCCN2CCC3(CC2)c2ccccc2C[S@+]3[O-])(c2ccc(Cl)c(Cl)c2)N(C)C(=O)NCc2ccccc2F)cc(OC)c1OC` [Compound No. 617, 1-{1-(3,4,5-trimethoxybenzyloxy)-2-(S)-(3,4-dichlorophenyl)-5-[spiro(benzo(c)thiophene(2S)-oxido-1(3H),4′-piperidin)-1′-yl]pentan-2-yl}-3-(2-fluorobenzyl)-1-methylurea hydrochloride], the IC50 came to 0.54 nM.
Same read-out and setting: for `COc1cc(COC[C@](CCCN2CCC3(CC2)c2ccccc2C[S@+]3[O-])(c2ccc(Cl)c(Cl)c2)N(C)C(=O)NCc2cccc(F)c2)cc(OC)c1OC` [Compound No. 618, 1-{1-(3,4,5-trimethoxybenzyloxy)-2-(S)-(3,4-dichlorophenyl)-5-[spiro(benzo(c)thiophene(2S)-oxido-1(3H),4′-piperidin)-1′-yl]pentan-2-yl}-3-(3-fluorobenzyl)-1-methylurea hydrochloride] the value was 1.2 nM.
Regarding `COc1cc(COC[C@](CCCN2CCC3(CC2)c2ccccc2C[S@+]3[O-])(c2ccc(Cl)c(Cl)c2)N(C)C(=O)NCc2ccc(F)cc2)cc(OC)c1OC` [Compound No. 621, 1-{1-(3,4,5-trimethoxybenzyloxy)-2-(S)-(3,4-dichlorophenyl)-5-[spiro(benzo(c)thiophene(2S)-oxido-1(3H),4′-piperidin)-1′-yl]pentan-2-yl}-3-(4-fluorobenzyl)-1-methylurea hydrochloride], the IC50 stood at 0.94 nM.

Values taken from US7276511B2, “Benzylamine derivative” (Zeria Pharmaceutical Co., Ltd., priority 2003, dated 2007).
